Measurements: PubChem BioAssay (NCI)
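In this assay, cells in 96-well plates receive the compound at five concentrations for 48 hours. Endpoints are linearly interpolated between the surrounding concentrations. GI50 = concentration required for 50% inhibition of growth. TGI denotes the concentration required for complete inhibition of growth.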

Key:
Assay in all cases: growth of human tumour cells (NCI), 48 h; in the data active = GI50 below about 0.43 µM; inactive = the rest
PC-3 prostate = test system: PC-3 prostate
UACC-62 melanoma = test system: UACC-62 melanoma
NCI-H23 lung = test system: NCI-H23 lung
M14 melanoma = test system: M14 melanoma
SR leukemia = test system: SR leukemia
A498 renal = test system: A498 renal
OVCAR-4 ovarian = test system: OVCAR-4 ovarian
MCF7 breast = test system: MCF7 breast
TK-10 renal = test system: TK-10 renal
SK-OV-3 ovarian = test system: SK-OV-3 ovarian
HT29 colon = test system: HT29 colon
T-47D breast = test system: T-47D breast
RPMI-8226 leukemia = test system: RPMI-8226 leukemia
SNB-19 CNS = test system: SNB-19 CNS
HS 578T breast = test system: HS 578T breast
A549 NSCLC = test system: A549 NSCLC
SN12C renal = test system: SN12C renal
BT-549 breast = test system: BT-549 breast
OVCAR-5 ovarian = test system: OVCAR-5 ovarian
OVCAR-8 ovarian = test system: OVCAR-8 ovarian
KM12 colon = test system: KM12 colon
UACC-257 melanoma = test system: UACC-257 melanoma
K-562 leukemia = test system: K-562 leukemia
SF-539 CNS = test system: SF-539 CNS
MDA-MB-231 breast = test system: MDA-MB-231 breast
SF-295 CNS = test system: SF-295 CNS
NCI-H522 lung = test system: NCI-H522 lung
MDA-MB-468 breast = test system: MDA-MB-468 breast
HOP-92 NSCLC = test system: HOP-92 NSCLC
EKVX NSCLC = test system: EKVX NSCLC
DU-145 prostate = test system: DU-145 prostate
NCI/ADR-RES ovarian = test system: NCI/ADR-RES ovarian
SK-MEL-5 melanoma = test system: SK-MEL-5 melanoma
ACHN renal = test system: ACHN renal
CCRF-CEM leukemia = test system: CCRF-CEM leukemia
SNB-75 CNS = test system: SNB-75 CNS
HCT-15 colon = test system: HCT-15 colon
NCI-H460 lung = test system: NCI-H460 lung
HCT-116 colon = test system: HCT-116 colon
HL-60(TB) leukemia = test system: HL-60(TB) leukemia
SF-268 CNS = test system: SF-268 CNS
CAKI-1 renal = test system: CAKI-1 renal
NCI-H226 lung = test system: NCI-H226 lung
U251 CNS = test system: U251 CNS
SK-MEL-28 melanoma = test system: SK-MEL-28 melanoma
RXF 393 renal = test system: RXF 393 renal
IGROV1 ovarian = test system: IGROV1 ovarian
OVCAR-3 ovarian = test system: OVCAR-3 ovarian
SK-MEL-2 melanoma = test system: SK-MEL-2 melanoma
SW-620 colon = test system: SW-620 colon
LOX IMVI melanoma = test system: LOX IMVI melanoma
MOLT-4 leukemia = test system: MOLT-4 leukemia
HOP-62 NSCLC = test system: HOP-62 NSCLC
HCC-2998 colon = test system: HCC-2998 colon
786-0 renal = test system: 786-0 renal
COLO 205 colon = test system: COLO 205 colon
MDA-MB-435 = test system: MDA-MB-435
UO-31 renal = test system: UO-31 renal
MALME-3M melanoma = test system: MALME-3M melanoma

COc1ccc(C(=O)/C=C/c2ccc(OC)c(OCc3ccccc3)c2)cc1OC
60.1 µM: TGI (SK-MEL-2 melanoma)
33.9 µM: TGI (UACC-62 melanoma)
27.5 µM: TGI (SK-MEL-5 melanoma)
8.73 µM: TGI (MOLT-4 leukemia)
inactive: GI50 (PC-3 prostate) 4.99 µM | GI50 (UACC-62 melanoma) 3.81 µM | GI50 (NCI-H23 lung) 4.39 µM | GI50 (M14 melanoma) 9.79 µM | GI50 (SR leukemia) 2060 nM | GI50 (A498 renal) 17.5 µM | GI50 (OVCAR-4 ovarian) 5.2 µM | GI50 (MCF7 breast) 2640 nM | GI50 (TK-10 renal) 4.87 µM | GI50 (SK-OV-3 ovarian) 8.23 µM | GI50 (HT29 colon) 4 µM | GI50 (T-47D breast) 2800 nM | GI50 (RPMI-8226 leukemia) 2640 nM | GI50 (SNB-19 CNS) 3.46 µM | GI50 (HS 578T breast) 7.71 µM | GI50 (A549 NSCLC) 3.11 µM | GI50 (SN12C renal) 2890 nM | GI50 (BT-549 breast) 2550 nM | GI50 (OVCAR-5 ovarian) 2970 nM | GI50 (OVCAR-8 ovarian) 3.25 µM | GI50 (KM12 colon) 3.93 µM | GI50 (UACC-257 melanoma) 6.57 µM | GI50 (K-562 leukemia) 2860 nM | GI50 (SF-539 CNS) 2040 nM | GI50 (MDA-MB-231 breast) 4.11 µM | GI50 (SF-295 CNS) 5.43 µM | GI50 (NCI-H522 lung) 3.18 µM | GI50 (MDA-MB-468 breast) 2940 nM | GI50 (HOP-92 NSCLC) 4.67 µM | GI50 (EKVX NSCLC) 13.4 µM | GI50 (DU-145 prostate) 3.83 µM | GI50 (NCI/ADR-RES ovarian) 3 µM | GI50 (SK-MEL-5 melanoma) 11.7 µM | GI50 (ACHN renal) 6.86 µM | GI50 (CCRF-CEM leukemia) 3.22 µM | GI50 (SNB-75 CNS) 1590 nM | GI50 (HCT-15 colon) 2690 nM | GI50 (NCI-H460 lung) 3.67 µM | GI50 (HCT-116 colon) 3.35 µM | GI50 (HL-60(TB) leukemia) 5.06 µM | GI50 (SF-268 CNS) 8.91 µM | GI50 (CAKI-1 renal) 9.93 µM | GI50 (NCI-H226 lung) 6.35 µM | GI50 (U251 CNS) 3.02 µM | GI50 (SK-MEL-28 melanoma) 21.4 µM | GI50 (RXF 393 renal) 4.61 µM | GI50 (IGROV1 ovarian) 3.42 µM | GI50 (OVCAR-3 ovarian) 2960 nM | GI50 (SK-MEL-2 melanoma) 14.4 µM | GI50 (SW-620 colon) 3.04 µM | GI50 (LOX IMVI melanoma) 2660 nM | GI50 (MOLT-4 leukemia) 2700 nM | GI50 (HOP-62 NSCLC) 3.37 µM | GI50 (HCC-2998 colon) 3.39 µM | GI50 (786-0 renal) 4.13 µM | GI50 (COLO 205 colon) 4.33 µM | GI50 (MDA-MB-435) 3.47 µM | GI50 (UO-31 renal) 2890 nM | GI50 (MALME-3M melanoma) 25.1 µM
82.6 µM: TGI (HOP-62 NSCLC)
4.65 µM: TGI (SF-539 CNS)
43.6 µM: TGI (NCI-H23 lung)
61.5 µM: TGI (OVCAR-4 ovarian)
8.42 µM: TGI (BT-549 breast)
80.6 µM: TGI (T-47D breast)
61.4 µM: TGI (A498 renal)
24.8 µM: TGI (HL-60(TB) leukemia)
7.21 µM: TGI (SNB-75 CNS)
38 µM: TGI (COLO 205 colon)
> 100 µM: TGI (PC-3 prostate) | TGI (M14 melanoma) | TGI (MCF7 breast) | TGI (TK-10 renal) | TGI (SK-OV-3 ovarian) | TGI (HT29 colon) | TGI (RPMI-8226 leukemia) | TGI (SNB-19 CNS) | TGI (A549 NSCLC) | TGI (SN12C renal) | TGI (OVCAR-5 ovarian) | TGI (OVCAR-8 ovarian) | TGI (UACC-257 melanoma) | TGI (K-562 leukemia) | TGI (MDA-MB-231 breast) | TGI (SF-295 CNS) | TGI (HOP-92 NSCLC) | TGI (EKVX NSCLC) | TGI (DU-145 prostate) | TGI (NCI/ADR-RES ovarian) | TGI (ACHN renal) | TGI (CCRF-CEM leukemia) | TGI (HCT-15 colon) | TGI (HCT-116 colon) | TGI (CAKI-1 renal) | TGI (U251 CNS) | TGI (SK-MEL-28 melanoma) | TGI (RXF 393 renal) | TGI (IGROV1 ovarian) | TGI (SW-620 colon) | TGI (LOX IMVI melanoma) | TGI (HCC-2998 colon) | TGI (786-0 renal) | TGI (MDA-MB-435) | TGI (UO-31 renal) | TGI (MALME-3M melanoma)
38.6 µM: TGI (KM12 colon)
19.6 µM: TGI (MDA-MB-468 breast) | TGI (OVCAR-3 ovarian)
20.3 µM: TGI (NCI-H460 lung)
70.9 µM: TGI (SF-268 CNS)
53.5 µM: TGI (HS 578T breast)
8.61 µM: TGI (SR leukemia)
26 µM: TGI (NCI-H522 lung)
95.9 µM: TGI (NCI-H226 lung)
